For one data set, the target named is T1, EP1 receptor (Mus musculus, UniProt P35375).
T1 sequence (P35375 1-405): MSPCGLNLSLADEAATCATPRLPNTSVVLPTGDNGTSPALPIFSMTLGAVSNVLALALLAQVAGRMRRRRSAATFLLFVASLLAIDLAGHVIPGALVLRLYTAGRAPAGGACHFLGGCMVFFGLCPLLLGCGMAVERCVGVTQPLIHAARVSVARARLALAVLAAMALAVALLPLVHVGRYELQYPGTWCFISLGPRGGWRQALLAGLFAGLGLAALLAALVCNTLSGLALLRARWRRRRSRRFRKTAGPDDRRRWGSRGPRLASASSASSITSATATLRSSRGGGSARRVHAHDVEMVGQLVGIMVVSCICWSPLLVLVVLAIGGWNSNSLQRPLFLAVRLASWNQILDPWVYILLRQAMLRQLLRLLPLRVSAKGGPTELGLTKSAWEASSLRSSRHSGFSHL
The settings on record: read-out: Affinity for the EP1 receptor; cited from earlier work.

The next data set concerns the target T2, EP3 receptor (Mus musculus, UniProt P30557).
T2 sequence (P30557 1-365): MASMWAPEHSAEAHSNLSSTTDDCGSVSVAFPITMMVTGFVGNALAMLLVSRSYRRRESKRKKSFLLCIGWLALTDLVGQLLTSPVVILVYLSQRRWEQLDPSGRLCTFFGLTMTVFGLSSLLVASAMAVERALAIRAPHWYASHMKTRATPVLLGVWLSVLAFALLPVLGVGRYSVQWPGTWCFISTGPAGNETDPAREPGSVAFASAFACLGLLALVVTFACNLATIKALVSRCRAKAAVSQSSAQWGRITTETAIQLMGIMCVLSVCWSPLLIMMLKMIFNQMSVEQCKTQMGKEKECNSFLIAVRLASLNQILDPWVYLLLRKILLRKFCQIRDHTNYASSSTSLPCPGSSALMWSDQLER
The settings on record: cited from earlier work; for Ki: read-out: Affinity for the EP3 receptor.

The next data set relates to EP3. The following applies: CHO cell lines; cited from earlier work.
Data set [1] deals with mice. The data set can be described thus: Analysis of physiological parameters (arterial blood pH, PaO2, PaCO2, MABP) around MCAO. The settings on record: before ischemia, during ischemia, during reperfusion; all doses. The data set is classed as in vivo, mouse. As for the experimental part: Measurement of physiological parameters was carried out in a group of mice separate from that used to assess infarct volume (FIG. 1, Illustration B). Arterial blood samples collected via femoral catheter were analyzed for pH, PaO2, and PaCO2 before the occlusion, during occlusion, and 1 h after the occlusion. MABP was measured at the same time points by a pressure transducer connected to the femoral catheter.

The test system of another data set is rats. The following applies: single ICV injection, 20 nmol; cited from earlier work.
The subject of data set [2] is NMDA-induced brain lesion in C57B1/6 WT mice. The data set can be described thus: NMDA-induced brain lesion volume (excitotoxicity). Type of data set: in vivo, mouse. The following applies: 15 nmol NMDA intrastriatal, 48 h. Here is the method:
(§1) Mice were anesthetized with 3.0% halothane and maintained with 1.0-1.5% continuous flow of halothane in oxygen-enriched air. Then the mice were mounted on a stereotactic frame and injected with 0.2 μl of different doses of ONO-AE-248 (0.5 nmol, 2.5 nmol, or 5.0 nmol) or vehicle (DMSO) via a 1μl Hamilton syringe (Reno, Nev.) into the right lateral ventricle as described previously (Ahmad et al., 2006a). After the injection, the needle was retracted slowly, the hole was plugged with bone wax, and the wound was sutured. Mice were then either transferred to another setup for the MCAO procedure or left in place for NMDA injection (see below).
To investigate the effect of NMDA toxicity in mice lacking the EP3 receptor, WT (n=7) and EP3-/- (n=8) mice were injected in the right striatum with 15 nmol NMDA or vehicle in a volume of 0.3 μl 20 min after being injected with ONO-AE-248, as reported earlier (Ahmad et al., 2006a). After injection, the hole was blocked and the wound sutured, as described above. After the surgical procedures, the animals were transferred to a temperature-regulated chamber to recover from anesthesia. Throughout the stereotactic procedures the rectal temperature of mice was monitored and maintained at 37.0±0.5° C.
At 48 h after NMDA injection, weight and rectal temperature of each mouse was recorded. Then, mice were transcardially perfused with phosphate-buffered saline, followed by 4% paraformaldehyde (pH 7.2), under deep anesthesia. Brains were immediately removed, post-fixed in paraformaldehyde overnight, cryoprotected in sucrose (30%) for 3 days, and frozen in 2-methyl butane (pre-cooled over dry ice). Brain sections cut on a cryostat were collected on microscope slides and stained with Cresyl Violet to estimate lesion volume. Images of the brain sections were taken and analyzed with SigmaScan Pro 5.0 software (Systat Software Inc., Richmond, Calif.) as described previously (Ahmad et al., 2006b).

Data set [3] deals with mice. The data set can be described thus: Core body temperature by intra-abdominal radiofrequency probe. The following applies: mice without MCAO, room temperature, 4-day experiment. The data set is classed as in vivo, mouse. As for the experimental part:
A third cohort of mice was implanted with intra-abdominal radiofrequency probes [IPTT-200, Bio. Medic. Data System (BMDS), Seaford, Del.] 7 days before injection of ONO-AE-248 (n=5) or vehicle (n=5). Core temperature was sampled every 10 min for the first 90 min after injection, and then once daily for 4 days at room temperature via receivers (The DAS-5002 Notebook System™; BMDS). This telemetry system minimizes stress and allows temperature control and monitoring in freely moving animals.

For data set [4], the system named is mouse model of middle cerebral artery (MCA) occlusion. The data set can be described thus: MCAO (90 min) and reperfusion, hemispheric infarct volume. The data set is classed as in vivo. The following applies: 90 min occlusion, 4 days reperfusion. Here is the method:
as §1
During the MCAO procedure (FIG. 1, Illustration A), mouse rectal temperature was monitored and maintained at 37.0±0.5° C. by a heating pad, and anesthesia was maintained with continuous flow of halothane in oxygen-enriched air via a nose cone. Relative CBF was monitored with laser-Doppler flowmetry (Moor Instruments, Devon, England) by a flexible fiber optic probe affixed to the skull over the parietal cortex supplied by the MCA (2 mm posterior and 6 mm lateral to the bregma). MCAO was carried out under aseptic conditions with a silicone-coated nylon monofilament as described previously (Shah et al., 2006). […]
Four days after MCAO surgery, mice (n=9/dose) were deeply anesthetized, and their brains were harvested and sliced coronally into five 2-mm-thick sections. […] The area of infarcted brain, identified by the lack of TTC staining, was measured on the rostral and caudal surfaces of each slice and numerically integrated across the thickness of the slice to obtain an estimate of infarct volume in each slice (SigmaScan Pro, SPSS, Port Richmond, Calif., USA). Volumes from all five slices were summed to calculate total infarct volume over the entire hemisphere and expressed as a percentage of the volume of the contralateral structure. […] The corrected infarct volume was calculated as: volume of contralateral hemisphere−(volume of ipsilateral hemisphere−volume of infarct).

Consider `CS(=O)(=O)NC(=O)CCC/C=C\C[C@H]1C(=O)C[C@@H](O)[C@@H]1/C=C/[C@@H](O)COc1ccccc1` [sulprostone], for which the Ki at EP1 receptor was 4 nM; on EP3 receptor it was 0.6 nM.
As for `O=C(O)CCC/C=C\C[C@H]1C(=O)C[C@@H](O)[C@@H]1/C=C/[C@@H](O)CCc1ccccc1` [17-phenyl trinor PGE2], the Ki on EP1 receptor was 14 nM; on EP3 receptor, 21 nM.
As for `CCCCC[C@@H](/C=C/[C@H]1[C@H](OC)CC(=O)[C@@H]1C/C=C\CCCC(=O)O)OC` [ONO-AE-248], in the data set on EP3, the “Effect on forskolin-induced increase in cAMP” value is “prevented the forskolin-induced increase in cAMP”. On EP3 receptor (EP3 versus EP1), the “Specificity for EP3 over EP1” value was 1333 times. For the same molecule, in the data set on mice [1], the “MABP versus vehicle group” value was “No statistically significant differences”, the “PaCO2 versus vehicle group” value is reported as “No statistically significant differences”, the “PaO2 versus vehicle group” value is “No statistically significant differences” and the “pH (arterial blood) versus vehicle group” value was “No statistically significant differences”. In the data set on rats, the “Effect on body temperature” value is “mild hyperthermia was induced”. Also, the “Effect on NMDA-induced toxicity” value in data set [2] (0.5 nmol ICV pretreatment) was “did not affect”. Also, the “Effect on NMDA-induced lesion size” value in data set [2] (2.5 nmol ICV pretreatment, p<0.02) was “significantly and dose-dependently increased”. The “Effect on NMDA-induced lesion size” value in data set [2] (5 nmol ICV pretreatment, p<0.001) was “significantly and dose-dependently increased”. Also, the “Effect on core body temperature” value in the data set with mice [3] is “did not affect core body temperature”. The “Infarct volume increase as compared with the vehicle-treated group” value (“Infarct volume increase” below) in data set [4] (0.5 nmol ICV before MCAO, not statistically significant) was 17%. In data set [4] (2.5 nmol ICV before MCAO, statistically significant), the “Infarct volume increase” value came to 34%. Besides, in data set [4] (5.0 nmol ICV before MCAO, statistically significant), the “Infarct volume increase” value was 38%.
